In the Deep4Chem optical property database one finds emission maximum data, which are given here for 35 compounds.

Values joined by “and” are separate entries in the source; they are usually repeats but may differ in a detail not shown here. Identical values can stand only once.

This series is described as follows: solvent given as SMILES.
Where [1] appears, read: in O=P(c1ccccc1)(c1ccccc1)c1ccccc1Oc1ccccc1P(=O)(c1ccccc1)c1ccccc1.

The compound `c1ccc(B2Nc3cc4c(cc3-c3sccc32)NB(c2ccccc2)c2ccsc2-4)cc1` had an emission maximum (in ClCCl) of 412 nm.
For `CC1=N/C(=C\c2cc(N(C)C)ccc2C#N)C(=O)N1C`, the emission maximum was 560 nm (in C1CCOC1), 606 nm (in CC#N) and 492 nm (in CCCCCC).
Regarding `c1ccc2c(c1)c1ccccc1n2-c1ccc(-c2cc3ccc(-c4ccc5cc(-c6ccc(-n7c8ccccc8c8ccccc87)cc6)oc5c4)cc3o2)cc1`, the emission maximum runs as follows: (in Cc1ccccc1) 407 nm; (in c1ccc2c(c1)c1ccccc1n2-c1ccc(-c2ccc(-n3c4ccccc4c4ccccc43)cc2)cc1) 419 nm.
As to `CN(C)c1ccc(C(=Cc2ccc(/C=C(\C#N)c3ccccc3)cc2)c2ccc(N(C)C)cc2)cc1`, the emission maximum (in C1CCOC1) was 616 nm.
`Brc1cnc(-c2ccncc2)s1` displayed an emission maximum (in CO) of 396 nm.
Under “in ClC(Cl)Cl”, `COc1ccc(-n2c3c4ccccc4nc(-c4ccc(C#N)cc4)c3c3c2c2c(-c4ccc(C#N)cc4)nc4ccccc4c2n3-c2ccc(OC)cc2)cc1` yielded an emission maximum of 513 nm.
`CN(C)CCCN1c2ccccc2CCc2ccc(Cl)cc21` came in with an emission maximum (in CC#N) of 348 nm, an emission maximum (in CO) of 353 nm and an emission maximum (in O) of 400 nm.
As to `CN(C)c1ccc(C2=C3C=C(c4ccc(C#N)cc4)S[C@]34c3ccccc3[C@H]2c2ccccc24)cc1`, the emission maximum (in ClCCl) was 601 nm.
On the same count and under the same terms, under `N#Cc1cc(/C=C/c2ccc(N(c3ccccc3)c3ccccc3)cc2)ccc1/C=C/c1ccc(/C=C/c2ccc(N(c3ccccc3)c3ccccc3)cc2)cc1C#N` stands 614 nm.
The compound `CCCCCCN1C(=O)c2cccc3c(-c4ccc(Cl)s4)ccc(c23)C1=O` registered an emission maximum (in ClC(Cl)Cl) of 482 nm.
Under “in CS(C)=O”, `C[N+]1=C(/C=C/C=C2/N(CCCc3ccccc3)c3ccccc3C2(C)C)C(C)(C)c2ccccc21` yielded an emission maximum of 567 nm.
Regarding `N#C/C=C/c1ccc2ccc3cccc4ccc1c2c34`, the emission maximum amounted to 425 nm (in C1CCOC1); 421.5 nm (in C1COCCO1); 439.5 nm (in C=CC#N); 440.5 nm (in CC#N); 433 nm (in CC(C)=O); 409.5 nm (in CCCCCC). Besides, the emission maximum (in CCOC(C)=O) came to 423 nm, the emission maximum (in CO) is 443 nm, the emission maximum (in Cc1ccccc1) is listed as 423 nm and the emission maximum (in ClCCl) came to 434 nm.
Where the note is “in ClCCl”, `C(S/C=C/c1ccc(-c2ccc(/C=C/SC=C(c3ccccc3)c3ccccc3)cc2)cc1)=C(c1ccccc1)c1ccccc1` had an emission maximum of 441 nm.
`FP(F)(c1c2ccccc2cc2ccccc12)(c1c2ccccc2cc2ccccc12)c1c2ccccc2cc2ccccc12` yielded an emission maximum (in C1CCOC1) of 410 nm.
In turn, `COc1ccc(-c2nc(-c3ccccc3O)c(-c3ccccc3O)n2-c2ccc(C)cc2)cc1` came in with an emission maximum (in C1CCOC1) of 357 nm, an emission maximum (in CS(C)=O) of 389 nm, an emission maximum (in ClC(Cl)Cl) of 410 nm and an emission maximum (in ClCCl) of 347 nm.
For the setting “in ClC(Cl)Cl”, `COc1cc(-c2cc(-c3ccccc3)c(-c3ccccc3)c(-c3ccccc3)c2-c2ccccc2)c(OC)cc1-c1ccc(N(C)C)cc1` showed an emission maximum of 396 nm.
As for `c1ccc(-c2nc(-c3ccccc3)nc(-c3ccc(-n4c5ccccc5c5cc6c(cc54)C(c4ccccc4)(c4ccccc4)c4ccccc4-6)cc3)n2)cc1`, the emission maximum is, setting by setting: (in C1CCOC1) 494.27 nm; (in CCCCCC) 400.55 nm; (in Cc1ccccc1) 442 nm; (in ClCCl) 519.15 nm; under setting [1], 471 nm.
Under “in CN(C)C=O”, `Brc1ccc2[nH]c(-c3ccc(-c4ccc(-c5ccc(-c6nc7cc(Br)ccc7[nH]6)cc5)cc4)cc3)nc2c1` returned an emission maximum of 410 nm.
In the case of `F[B-]1(F)n2c(c3cccc4cccc2c43)=Nc2cccc(Cl)[n+]21`, the emission maximum was 503 nm (in C1CCOC1); 502 nm (in CC#N); 498 nm (in CCCCCC); 503 nm (in Cc1ccccc1); 526 nm (in ClCCl).
`CCCCCCN(c1ccccc1)c1ccc(/C=C/c2cc(=O)oc3cc(C)ccc23)cc1`: the emission maximum was found to be 583 nm (in CS(C)=O) and 544 nm (in ClC(Cl)Cl).
For `Oc1ccccc1/N=C/c1ccccc1Oc1ccccc1`, the emission maximum turned out to be 413 nm (in C1CCCCC1); 412 nm (in C1CCOC1); 410 nm (in C1COCCO1); 410 nm (in CC#N); 410 nm (in CC(C)=O); 409 nm (in CC(C)CO). The emission maximum reads like this: (in CC(C)O) 406 nm; (in CCCCC) 425 nm; (in CCCCCCCCO) 414 nm; (in CCCCCCCO) 410 nm; (in CCCCCCO) 410 nm; (in CCCCO) 395 nm. The same compound had an emission maximum (in CCCCOC(C)=O) of 409 nm; an emission maximum (in CCCO) of 410 nm; an emission maximum (in CCO) of 408 nm; an emission maximum (in CCOC(C)=O) of 400 nm; an emission maximum (in CCOCC) of 420 nm; an emission maximum (in CN(C)C=O) of 418 nm. Also, the emission maximum is, setting by setting: (in CO) 414 nm; (in CS(C)=O) 410 nm; (in Cc1ccccc1) 411 nm; (in Cc1ccccc1C) 412 nm; (in ClC(Cl)Cl) 410 nm; (in ClCCl) 415 nm. For the same compound, the emission maximum is, setting by setting: (in N#Cc1ccccc1) 410 nm; (in OCCO) 415 nm; (in c1ccccc1) 410 nm.
`FC(F)(F)c1cc2n(n1)[B-]1(c3ccccc3Oc3ccccc31)[n+]1ccc3ccccc3c1-2` gave an emission maximum (in C1CCCCC1) of 473 nm, an emission maximum (in Cc1ccccc1) of 517 nm and an emission maximum (in ClCCl) of 543 nm.
Compound `c1ccc(-c2nc(-c3ccccc3)nc(-c3ccc(-n4c5ccccc5c5cc(-n6c7ccccc7c7ccccc76)ccc54)cc3)n2)cc1` gave an emission maximum (in Cc1ccccc1) of 458 nm and an emission maximum under setting [1] of 475 nm.
Consider `O=c1cc2cc(O)c3cc(O)cc4ccc(o1)c2c43`, for which the emission maximum (in CC1CCCO1) was 483 nm.
As for `CCCCCOc1ccc2c(c1)c1ccc3cccc4c5cccc6oc(=O)c2c(c65)c1c34`, where the note is “in C1CCOC1”, the emission maximum is recorded as 462 nm.
On to `Cc1ccc(/C(C#N)=C/c2cc(/C=C(\C#N)c3ccc(C)cc3)c(-c3ccc(N(c4ccccc4)c4ccccc4)cc3)cc2-c2ccc(N(c3ccccc3)c3ccccc3)cc2)cc1`, for which the emission maximum amounted to 453 nm (in C1CCCCC1); 538 nm (in C1CCOC1); 453 nm (in CCCCCC); 533 nm (in CCOC(C)=O); 480 nm (in Cc1ccccc1); 517 nm (in ClC(Cl)Cl). Also, the emission maximum (in ClCCl) is 552 nm.
In the case of `Nc1ccc2c(C(F)(F)F)cc(=O)oc2c1`, the emission maximum runs as follows: (in C1CCC2CCCCC2C1) 404 nm; (in C1CCCCC1) 401 nm; (in C1COCCO1) 442 nm; (in CC1CCCCC1) 401 nm; (in CC#N) 465 nm and 461 nm; (in CC(C)=O) 466 nm. The emission maximum worked out at 481 nm (in CC(C)O); 400 nm (in CCC(C)CC); 399 nm (in CCCC(C)C); 401 nm (in CCCCCC); 480 nm (in CCCCCCCCO); 481 nm (in CCCCCCO). Moreover, the emission maximum came to 484 nm (in CCCCO); 485 nm (in CCO); 456 nm (in CCOC(C)=O); 480 nm (in CN(C)C=O); 487 nm (in CO); 487 nm (in CS(C)=O).
Consider `CCC1=C(C)C2=C(C)c3cccn3[B-](F)(F)[N+]2=C1C`, for which the emission maximum (in C1CCCCC1) was determined as 515 nm; the emission maximum (in CC(C)=O) came to 512.5 nm; the emission maximum (in CCO) turned out to be 513.5 nm; the emission maximum (in CCOC(C)=O) came out at 512.5 nm; the emission maximum (in CO) was determined as 512.5 nm; the emission maximum (in OCC(F)(F)F) turned out to be 511 nm.
Regarding `C1=C(c2ccc(-c3cccs3)s2)CCCC1`, the emission maximum runs as follows: (in C1CCOC1) 423 nm; (in CC#N) 415 nm; (in CCCCCC) 411 nm; (in CCO) 445 nm; (in OCCOCCO) 446 nm; (in c1ccncc1) 423 nm.
Take `CC1=C(I)C(C)=[N+]2C1=C(c1c(-c3ccccn3)nc3ccccn13)c1c(C)c(I)c(C)n1[B-]2(F)F`: the emission maximum (in ClCCl) was determined as 580 nm.
Where the note is “in Cc1ccccc1”, `O=C1c2cc(-n3c4ccccc4c4ccccc43)c(-n3c4ccccc4c4ccccc43)cc2C(=O)N1c1ccccc1` yielded an emission maximum of 510 nm.
`O=Cc1ccc(C#CC(C#Cc2ccc(C=O)s2)=Cc2ccc(C=C(C#Cc3ccc(C=O)s3)C#Cc3ccc(C=O)s3)cc2)s1` yielded an emission maximum (in ClC(Cl)Cl) of 533 nm.
`COc1ccc(-c2ccc(/C=C/c3ccncn3)cc2)cc1` returned an emission maximum (in ClCCl) of 447 nm.
With `c1ccc2c(c1)CCc1c-2cnc2c1-c1ccccc1CC2`, the emission maximum runs as follows: (in C1CCOC1) 356 nm; (in CC#N) 358 nm; (in CCCCCC) 358 nm; (in CCOC(C)=O) 358 nm; (in CO) 361 nm; (in CS(C)=O) 360 nm. Moreover, the emission maximum runs as follows: (in Cc1ccccc1) 362 nm; (in ClCCl) 363 nm.
Consider `CC(C)(C)c1ccc2c(c1)c1cc(C(C)(C)C)ccc1n2-c1nc2ccccc2nc1-n1c2ccc(C(C)(C)C)cc2c2cc(C(C)(C)C)ccc21`, for which the emission maximum worked out at 544.34 nm (in C1CCOC1), 488.69 nm (in CCCCCC) and 527 nm (in Cc1ccccc1).
